According to patent US11945836B2, “Compositions and methods for treating CNS disorders” (Sage Therapeutics, Inc., priority 2014, dated 2024):

Columns and labels:
[1] = target: rat brain cortical membranes ([35S]-TBPS binding); assay: Steroid inhibition of [35S]-TBPS binding (radioligand displacement); settings: 3 nM [35S]-TBPS, in the presence of 5 μM GABA
GABAA receptors α1β2γ2 = target: T1, GABAA receptors α1β2γ2 (Homo sapiens, UniProt P14867+P47870); assay: Patch clamp electrophysiology (QPatch) of recombinant GABAA receptors in Ltk cells; type: cell-based; settings: 10 μM test article, 2 μM GABA (EC20), Ltk cells stably transfected with α1β2γ2, relative percentage potentiation; read-out: GABA (α1β2γ2) Qpatch in Ltk, % efficacy at 10 μM
T1 construct: expressed in transfected cells; host or cells: LTK (Ltk) cells, stably transfected
T1 sequence (P14867 28-456): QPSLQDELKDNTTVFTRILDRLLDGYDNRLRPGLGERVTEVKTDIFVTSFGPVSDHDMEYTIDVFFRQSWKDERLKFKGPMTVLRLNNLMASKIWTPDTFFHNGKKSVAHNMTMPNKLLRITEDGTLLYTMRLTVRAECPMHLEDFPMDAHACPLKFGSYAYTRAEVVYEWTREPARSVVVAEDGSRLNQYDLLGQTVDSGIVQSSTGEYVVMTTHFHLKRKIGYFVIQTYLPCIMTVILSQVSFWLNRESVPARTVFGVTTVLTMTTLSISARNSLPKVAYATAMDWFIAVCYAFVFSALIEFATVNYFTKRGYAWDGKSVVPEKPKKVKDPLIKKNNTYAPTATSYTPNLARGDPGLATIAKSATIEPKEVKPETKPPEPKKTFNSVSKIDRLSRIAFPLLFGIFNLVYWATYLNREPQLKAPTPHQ
T1 sequence (P47870 25-512 limits assumed): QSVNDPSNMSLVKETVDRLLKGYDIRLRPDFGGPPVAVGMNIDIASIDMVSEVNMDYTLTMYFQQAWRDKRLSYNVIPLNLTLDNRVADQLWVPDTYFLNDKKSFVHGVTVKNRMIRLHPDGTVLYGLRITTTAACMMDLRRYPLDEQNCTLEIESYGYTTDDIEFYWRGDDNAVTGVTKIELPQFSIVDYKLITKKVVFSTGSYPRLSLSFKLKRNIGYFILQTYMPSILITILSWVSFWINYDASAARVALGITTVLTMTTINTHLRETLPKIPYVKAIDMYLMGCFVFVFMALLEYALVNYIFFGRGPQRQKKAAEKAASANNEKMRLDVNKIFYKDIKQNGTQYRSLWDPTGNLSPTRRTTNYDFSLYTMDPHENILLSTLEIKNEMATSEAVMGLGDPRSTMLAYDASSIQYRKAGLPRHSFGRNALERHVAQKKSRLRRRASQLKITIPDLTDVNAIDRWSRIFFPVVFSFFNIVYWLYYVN
T1 sequence (P18507 40-475 partner): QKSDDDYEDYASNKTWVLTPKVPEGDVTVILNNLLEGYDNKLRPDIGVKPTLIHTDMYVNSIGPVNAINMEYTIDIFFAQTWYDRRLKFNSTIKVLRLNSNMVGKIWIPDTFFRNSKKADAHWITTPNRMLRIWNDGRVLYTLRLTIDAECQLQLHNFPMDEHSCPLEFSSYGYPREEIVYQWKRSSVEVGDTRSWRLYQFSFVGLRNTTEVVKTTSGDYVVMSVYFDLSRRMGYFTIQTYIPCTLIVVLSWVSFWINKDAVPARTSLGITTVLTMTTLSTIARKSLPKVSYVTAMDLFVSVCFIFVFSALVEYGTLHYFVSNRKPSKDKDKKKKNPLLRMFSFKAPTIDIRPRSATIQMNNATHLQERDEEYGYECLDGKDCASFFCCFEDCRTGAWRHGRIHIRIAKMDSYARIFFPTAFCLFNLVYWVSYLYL
Protocol: Patch Clamp Electrophysiology of Recombinant α1β2γ2 and α4β3δ GABAA Receptors
Cellular electrophysiology is used to measure the pharmacological properties of our GABAA receptor modulators in heterologous cell systems. Each compound is tested for its ability to affect GABA mediated currents at a submaximal agonist dose (GABA EC20=2 μM). LTK cells are stably transfected with the α1β2γ2 subunits of the GABA receptor and CHO cells are transiently transfected with the α4β3δ subunits via the Lipofecatamine method. Cells were passaged at a confluence of about 50-80% and then seeded onto 35 mm sterile culture dishes containing 2 ml culture complete medium without antibiotics or antimycotics. Confluent clusters of cells are electrically coupled (Pritchett et al., Science, 1988, 242, 1306-1308). Because responses in distant cells are not adequately voltage clamped and because of uncertainties about the extent of coupling (Verdoorn et al., Neuron 1990, 4, 919-928), cells were cultivated at a density that enables the recording of single cells (without visible connections to other cells).
Whole cell currents were measured with HEKA EPC-10 amplifiers using PatchMaster software or by using the high throughput QPatch platform (Sophion). Bath solution for all experiments contained (in mM): NaCl 137 mM, KCl 4 mM, CaCl2 1.8 mM, MgCl2 1 mM, HEPES 10 mM, D-Glucose 10 mM, pH (NaOH) 7.4. […]

| Structure (SMILES) | IC50 [1] | Emax at 10 µM (GABAA receptors α1β2γ2) |
| --- | --- | --- |
| C[C@@]1(O)CC[C@H]2[C@H](CC[C@@H]3[C@@H]2CC[C@]2(C)[C@@H](C(=O)c4ccccc4)CC[C@@H]32)C1 [Compound 1] | < 20 nM | > 500% |
| C[C@@]1(O)CC[C@H]2[C@H](CC[C@@H]3[C@@H]2CC[C@]2(C)[C@@H](C(=O)c4nc5ccccc5s4)CC[C@@H]32)C1 [Compound 8] | > 100 nM | 100 to 500% |
